Measurements taken from US11780814B2, “Small molecules for treating cancer, inhibiting chemokine activity and/or inducing cell death” (AlonBio Ltd., priority 2019, dated 2023).

Legend:
[1] = test system: U937 cells; experiment: Cell cycle analysis by 7-AAD staining; type: cell-based, human; conditions: 24 hours
Method: (§1) To evaluate the effects of BKT300-N1 on cell cycle distribution 7-Aminoactinomycin D (7-AAD) protocol was used. Cells were seeded in 24 wells of microplates at a density of 1×10^6 Cells/well and exposed to different concentrations of the tested compound, BKT300-N1 or BKT300-3-C5, for 24 or 48 hours at 37° C. in a CO2 incubator. After incubation time, cells were collected and washed with cold PBS. Cells were fixed for 20 minutes at 4° C. and processed according to the 7-AAD labeling protocol. The intensity of dye in staining cells was measured by flow cytometry. Cell cycle analysis calculated G0/G1, G2/M and sub-G0 phases from a 7-AAD area histogram.
Using the above protocol, U937 cells were treated with different concentrations of BKT300-N1 or BKT300-3-C5 (0.05, 0.1, 0.5 and 1 μM) for 24 hours and then cell cycle phases were analyzed by flow cytometry using 7-AAD.

[2] = target: SDF-1 (Homo sapiens, UniProt P48061); experiment: Transwell migration assay of Jurkat cells towards SDF-1; type: cell-based; conditions: 0.5 μM, 1 μM, or 5 μM; 100 ng/ml SDF-1; 3 hours; FIG. 2
Method: 600 μl of RPMI medium containing 1% fetal calf serum (FCS) was added to the lower chambers of Transwell® transmigration plates, supplemented with 100 ng/ml of SDF-1. BKT300-N1 was added to the lower chambers at the indicated concentration, except in control samples. The SDF-1 was incubated with BKT300-N1 for 30 minutes at room temperature before the initiation of the migration assay. Following 30 minutes of incubation 2×10^5 Jurkat cells were added to the upper chambers of the transmigration plates in a total volume of 100 μl. Cells which migrated within 3 hours to the bottom chamber of the Transwell® plates were counted using a FACScalibur™ flow cytometer.

[3] = test system: HCC SNU449 cells; experiment: Scratch assay (IncuCyte), cell invasion and migration; type: cell-based, human
Method: Scratch assay was performed to assess the effects of BKT300-N1 compared to that of BKT300-3-C5 on cell invasion and migration. This system measures scratch closure in real time and automatically calculates the relative wound density and wound width within the initially-vacant area at each time point. The relative wound density is the ratio of the occupied area to the total area of the initial scratched region.
Cells were plated on 96-well Image-lock plates (Essen Bioscience) and grown overnight to form a spatially uniform monolayer.
Scratches were made by using a 96-pin tool WoundMaker™ (Essen BioScience) to create uniform, reproducible scratches in all the wells of a 96-well plate. After creating the scratch, the medium was aspirated and the wells are washed twice with fresh medium to remove any cells from the scratched area. Following the washes, fresh medium containing different concentrations of the tested compound was added to the wells. Once the fresh medium is added, the plate was placed into the IncuCyte ZOOM™ apparatus and images of the collective cell spreading are recorded every 4 hours for a total duration of 60 hours.
Data processing and analysis were done using the IncuCyte S3 Live-cells Analysis System.
The scratch assay was performed using HCC SNU449 cells. The cells were scratched and incubated with 0.05, 0.1, 0.5, 1 and 10 μM of BKT300-N1 or BKT300-3-C5.

[4] = test system: U937 cells; experiment: Annexin-V/PI apoptosis assay by flow cytometry; type: cell-based, human; conditions: 25-1000 nM, 24 hours, compared to BKT300-3-C5
Method: Apoptosis was determined by flow cytometry analysis using Annexin-V kit. U937 cancer cells were incubated in RPMI cell medium with 1% fetal calf serum (FCS) at a concentration of 1×10^6 cells/well at a final volume of 1 ml in 24-well plate. The tested compound (BKT300-N1 or BKT300-3-C5) was added to the cells at the indicated concentrations. After 24 hours incubation, medium and cells were collected and centrifuged, then stained with Annexin-V and propidium iodide (PI) kit according to manufacturer's instructions. The numbers of viable cells (Annexin-V negative/PI negative); early apoptotic cells (Annexin-V positive/PI negative); late apoptosis cells (Annexin-V positive/PI positive) and necrotic cells (Annexin-V negative/PI positive) were then evaluated by flow cytometry (FACS).

[5] = test system: cleaved caspase-3 in U937 cells; experiment: Western blot for cleaved caspase-3; type: cell-based, human; conditions: 0.1, 0.5 and 1 μM; 24 hours; FIGS. 7A-7B
Method: The role of caspase-3 (CASP3) in the BKT300-N1-induced apoptosis of AML cell lines U937 was tested. Cells were incubated with BKT300-N1 (0.1, 0.5 and 1 μM) for 24 hours, and were then tested for the presence of cleaved caspase 3 using mAb against human cleaved caspase 3 by Western blot assay.

[6] = test system: H69 cells; experiment: Cell cycle analysis by 7-AAD staining; type: cell-based; conditions: different concentrations; 48 hours; FIG. 9
Method: as §1
Using the above protocol, H69 cells were treated with different concentrations of BKT300-N1 for 48 hours and then cell cycle phases were analyzed by flow cytometry using 7-AAD. Cells were gated according to the cells cycle phase: P1 for G0/G1 phase; P2-apoptotic cells in subG0 phase; and P3 for G2/M phase.

[7] = test system: human ovarian (CTG-1086) cancer; experiment: Patient derived xenograft (PDX) tumor growth, ovarian; type: in vivo, mice; conditions: SC every 12 hours, 5 mg or 10 mg daily dose; compared to vehicle control; FIG. 13A
Method: (§2) In additional experiments, the in vivo efficacy of BKT300-N1, on the growth of subcutaneous, low passage Champions' TumourGraft® patient derived xenograft (PDX) models of human non-small-cell lung (CTG-0198), colorectal (CTG-0923) and ovarian (CTG-1086) cancer in female immunocompromised mice was tested.
(§3) Athymic Nude-Foxn1nu (Immunocompromised) female mice aged 6-8 weeks were implanted with 1-1.5 cm^3 harvested tumors unilaterally on the left flank. When the tumors reached an average volume of 200 cubic millimeters, control group was treated daily with a vehicle and treatment group was treated with either 2.5 mg per mice per injection (low dose) or 5 mg per mice per injection (hight dose) of BKT300-N1. The control group was subcutaneously (SC) injected with the vehicle (Cremophore EL and Ethanol 50%/50% volume/volume) diluted 1:6 with 0.9% Sodium Chloride.
(§4) For the low dose treatment group, a stock solution of 30 mg/mL BKN300-N1 was preapared in the vehicle and further diluted 1:6 with 0.9% Sodium Chloride, to a final concentration of 5 mg/mL. Animals received a 0.5 mL subcutaneously (SC) injection every 12 hours (for a 2.5 mg/injection=5 mg daily dose).
(§5) For the high dose treatment group, a stock solution of 30 mg/mL BKN300-N1 was preapared in the vehicle and further diluted 1:3 with 0.9% Sodium Chloride, to a final concentration of 10 mg/mL. […]

[8] = test system: human non-small-cell lung (CTG-0198) cancer; experiment: Patient derived xenograft (PDX) tumor growth, lung; type: in vivo, mice; conditions: SC every 12 hours, 5 mg or 10 mg daily dose; compared to vehicle control; FIG. 13B
Method: as §2, §3, §4, §5

[9] = test system: human colorectal (CTG-0923) cancer; experiment: Patient derived xenograft (PDX) tumor growth, colorectal; type: in vivo, mice; conditions: SC every 12 hours, 5 mg or 10 mg daily dose; compared to vehicle control; FIG. 13C
Method: as §2, §3, §4, §5

[10] = test system: HEY-T30 cells; experiment: Cell cycle analysis by 7-AAD, Taxol-resistant ovarian cancer cells; type: cell-based; conditions: 24 hours
Method: Cells (1×10^6 cells/ml) were cultured in 12-well plates in 10% FCS. After 24 hours the medium was replaced by 1% FCS and BKT300-N1 or Taxol (250-3.75 nM) were added.
24 hours incubation, cells were harvested and washed with PBS. The pellet was fixed by adding 200 μl Fix/Perm buffer and vortexed. The fixed cells were incubated for 20 minutes at 4° C. and then 1 ml of Perm/Wash buffer was added. Following centrifugation, supernatant was removed and cells were resuspended in 100 μl Perm/Wash plus 4 μl of 7-AAD and vortexed. The cells were then incubated in the dark for 20 minutes at 4° C. and thereafter 300 μl of PBS was added. Flow cytometry analysis was performed by collecting 20,000 events per sample. Analysis was done according to the distribution of cells in three major phases of the cycle: G0/G1 (blue), S (purple), G2/M (green), and apoptotic cells (red), as shown in FIGS. 15-18C.
All results are expressed as average ±SD. Statistical differences were determined by an analysis of two-tailed Student's t test. Values of p<0.05 were considered to be statistically significant.
Cells were incubated in different doses of Taxol (30, 15, 7.5, 3.75 nM) for 24 hours and were thereafter analyzed as described hereinabove.
Next, the effect of BKT300-N1 on the taxol resistance cells was tested. Both ovarian cancer cell lines were incubated with BKT300-N1 (250, 125, 62.5, 31.25, 15.6 nM). For comparison, the effect of the same amounts of Taxol was also tested.

[11] = test system: cancer cells; conditions: described in WO 2017/103931; cited from earlier work
[12] = test system: OVCAR8 cells; experiment: Cell cycle analysis by 7-AAD, Taxol-sensitive ovarian cancer cells; type: cell-based; conditions: lowest taxol concentration of 3.75 nM; 24 hours; FIG. 16
Method: Cells (1×10^6 cells/ml) were cultured in 12-well plates in 10% FCS. […] 24 hours incubation, cells were harvested and washed with PBS. The pellet was fixed by adding 200 μl Fix/Perm buffer and vortexed. The fixed cells were incubated for 20 minutes at 4° C. and then 1 ml of Perm/Wash buffer was added. Following centrifugation, supernatant was removed and cells were resuspended in 100 μl Perm/Wash plus 4 μl of 7-AAD and vortexed. The cells were then incubated in the dark for 20 minutes at 4° C. and thereafter 300 μl of PBS was added. Flow cytometry analysis was performed by collecting 20,000 events per sample. […] All results are expressed as average ±SD. Statistical differences were determined by an analysis of two-tailed Student's t test. Values of p<0.05 were considered to be statistically significant. Cells were incubated in different doses of Taxol (30, 15, 7.5, 3.75 nM) for 24 hours and were thereafter analyzed as described hereinabove.

[13] = test system: CXCR4; conditions: animal studies, cited from earlier work
[14] = all tested concentrations (0.05, 0.1, 0.5 and 1 μM), FIG. 8A

Sequence of SDF-1 (P48061 22-93, species assumed): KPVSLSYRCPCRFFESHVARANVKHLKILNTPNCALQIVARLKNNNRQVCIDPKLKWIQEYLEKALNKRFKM

Q: For `CCCCCC1C(=O)Nc2c(Oc3ccc(OC)cc3OC)cc(OC)cc2C1=O` (stereo not shown) [BKT300-3-C5, reference compound], which cells death ([1]; concentration lower than 0.5 μM, FIG. 8B) is on record?
A: did not induce cells death

Q: Which “migration of lymphocytic Jurkat cells towards SDF-1” value [2] does the source give for `CCCCCc1c(O)c2cc(OC)cc(Oc3ccc(O)cc3OC)c2[nH]c1=O` [BKT300-N1, 4-hydroxy-8-(4-hydroxy-2-methoxyphenoxy)-6-methoxy-3-pentylquinolin-2(1H)-one] here?
A: significantly inhibited

Q: And the wound width values ([3]; 0.05, 0.1, 0.5, 1 and 10 μM, over BKT300-3-C5, particularly at the lower concentrations, FIGS. 4A-4E)?
A: improved effect

Q: And the relative wound area ([3]; at 24 hours, already at 0.1 μM, compared to BKT300-3-C5, FIG. 3)?
A: improved effect

Q: And the “viability of U937 cells as the number of Annexin-V−/PI− viable cells” value ([4]; all tested concentrations, FIG. 6A)?
A: improved effect

Q: And the “reduction in the percentage of viable cells via apoptosis” value ([4]; FIGS. 6A-6B)?
A: substantially higher effect

Q: And the “presence of cleaved caspase-3 (mechanism of induced apoptosis)” value [5]?
A: via caspase-3 activation

Q: What about the cell cycle arrest [1, 14] of the same compound?
A: resulted in cell cycle arrest

Q: What about the cells death [1, 14] of the same compound?
A: induced cells death

Q: What about the apoptotic cell death [6] of the same compound?
A: induce apoptotic cell death

Q: And the “cell cycle growth arrest” value [6]?
A: arrest the growth at the G2M phase

Q: And the tumor growth [7]?
A: substantial reduction and even arrest in tumor growth

Q: And the tumor growth [8]?
A: substantial reduction and even arrest in tumor growth

Q: And the tumor growth [9]?
A: substantial reduction and even arrest in tumor growth

Q: And the “level of dead cells” value ([10]; significant at a concentration of 62.5 nM, FIG. 18A)?
A: increasing the level of dead cells

Q: What about the “percentage of cells at G0/G1 phase” value ([10]; significant at concentration of 125 nM, FIG. 18B) of the same compound?
A: reducing the percentage of cells at G0/G1 phase

Q: What about the “level of cells in G2/M phase” value ([10]; significant at concentration of 125 nM, FIG. 18C) of the same compound?
A: increasing the level of cells in G2/M phase

Q: Which cancer cell death [11] does the source give for `CCCCCc1cc2cc(O)cc(Oc3c(O)cc(O)cc3CCCCC)c2c(=O)o1` [BKT300] here?
A: inducing cancer cell death

Q: And the cancer cell migration [11]?
A: inhibiting cancer cell migration

Q: Which “effect on cell cycle” value ([10]; Taxol 30, 15, 7.5, 3.75 nM, FIG. 15) does the source give for `CC(=O)O[C@H]1C(=O)[C@@]2(C)[C@H]([C@H](OC(=O)c3ccccc3)[C@]3(O)C[C@H](OC(=O)[C@H](O)[C@@H](NC(=O)c4ccccc4)c4ccccc4)C(C)=C1C3(C)C)[C@]1(OC(C)=O)CO[C@@H]1C[C@@H]2O` [Taxol, reference compound] here?
A: no effect on cell cycle

Q: What about the “effects on dead cells, G0/G1 phase and G2/M phase” value ([10]; any of the tested concentrations (250, 125, 62.5, 31.25, 15.6 nM), FIGS. 18A-18C) of the same compound?
A: no significant effects

Q: And the “effect on cell cycle” value [12]?
A: effect on cell cycle was already evident

Q: For `c1cc(CN2CCCNCCNCCCNCC2)ccc1CN1CCCNCCNCCCNCC1` [plerixafor], which “recurrence of glioblastoma associated with vasculogenesis” value ([13]; Kioi et al. 2010) is on record?
A: reduce recurrence of glioblastoma

Q: What about the metastasis ([13]; Smith et al. 2004) of the same compound?
A: reduce metastasis

Q: And the opioid-induced hyperalgesia ([13]; Wilson et al. 2011)?
A: counteract opioid-induced hyperalgesia
